# Data: patent publication US6784201B2, “Benzothiepines having activity as inhibitors of ileal bile acid transport and taurocholate uptake” (G.D. Searle & Company, priority 1994, dated 2004)
# Molecular target: T1, human IBAT (Homo sapiens, UniProt Q12908)
# T1 construct: expressed in transfected cells; host or cells: Baby hamster kidney (BHK) cells, clone H14
# T1 sequence (Q12908 1-348): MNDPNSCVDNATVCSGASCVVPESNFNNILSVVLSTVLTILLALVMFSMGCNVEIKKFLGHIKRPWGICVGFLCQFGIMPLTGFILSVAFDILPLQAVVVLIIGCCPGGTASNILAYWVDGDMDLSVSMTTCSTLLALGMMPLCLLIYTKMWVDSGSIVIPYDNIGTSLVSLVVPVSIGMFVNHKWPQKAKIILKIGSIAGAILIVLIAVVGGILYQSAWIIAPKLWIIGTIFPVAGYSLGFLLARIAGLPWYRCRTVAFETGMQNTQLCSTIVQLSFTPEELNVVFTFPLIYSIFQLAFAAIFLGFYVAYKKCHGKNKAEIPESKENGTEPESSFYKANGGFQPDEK
# Assay: In vitro assay of IBAT-mediated uptake of [14C]-taurocholate (TC) in H14 cells
# Type: cell-based
# Settings: Human TC IC50
# How it was run: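 BHK cells stably expressing human IBAT (H14) were incubated 2 h at 37° C with compound and 3 μM final [14C]-taurocholate in DMEM (4.5 g/L glucose) plus 0.2% fatty acid-free BSA. After cold PBS washes, cell-associated radioactivity was measured by scintillation counting.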
row,SMILES,IC50 [nM]
1,CCCCC1(CCCC)CS(=O)(=O)c2ccc(N(C)C)cc2C(c2ccc(CC(=O)N(C)CN(C)C)c(F)c2)C1O (stereo not drawn) [Example 1280],760
2,CCCCC1(CC)CS(=O)(=O)c2ccc(N(C)C)cc2C(c2ccccc2)C1O (stereo not drawn) [Example 1285],27

# Same assay, conditions: read-out: Human TC IC50
row,SMILES,IC50 [nM]
1,CCCCC1(CCCC)CS(=O)(=O)c2ccc(N(C)C)cc2C(c2cccc(CBr)c2)C1O (stereo not drawn) [Example 1246],18
2,CCCCC1(CCCC)CS(=O)(=O)c2ccc(N(C)C)cc2C(c2ccc3cc(O)ccc3c2)C1O (stereo not drawn) [Example 1247],17
3,CCCCC1(CCCC)CS(=O)(=O)c2ccc(N(C)C)cc2C(c2ccc(O)c(CN(C)C)c2)C1O (stereo not drawn) [Example 1248],330
4,CCCCC1(CCCC)CS(=O)(=O)c2ccc(N(C)C)cc2C(c2ccc(C[N+](C)(C)CCO)cc2)C1O (stereo not drawn) [Example 1249],10200
5,CCCCC1(CCCC)CS(=O)(=O)c2ccc(N(C)C)cc2C(c2cccc(N(C)C)c2)C1O (stereo not drawn) [Example 1250],13
6,CCCCC1(CCCC)CS(=O)(=O)c2ccc(N(C)C)cc2C(c2cccc3ccccc23)C1O (stereo not drawn) [Example 1251],620
7,CCCCC1(CCCC)CS(=O)(=O)c2ccc(N(C)C)cc2C(c2ccc(OCCC[N+](CC)(CC)CC)cc2)C1O (stereo not drawn) [Example 1252],29000
8,CCCCC1(CCCC)CS(=O)(=O)c2ccc(N(C)C)cc2C(c2ccc(OC)c(C[N+](C)(C)C)c2)C1O (stereo not drawn) [Example 1253],300
9,CCCCC1(CCCC)CS(=O)(=O)c2ccc(N(C)C)cc2C(c2ccc(C[n+]3ccccc3)cc2)C1O (stereo not drawn) [Example 1254],850
10,CCCCC1(CCCC)CS(=O)(=O)c2ccc(N(C)C)cc2C(c2cccc(C[N+](C)(C)CC[N+](C)(C)C)c2)C1O (stereo not drawn) [Example 1255],690
11,CCCCC1(CCCC)CS(=O)(=O)c2ccc(N(C)C)cc2C(c2cccc([N+](=O)[O-])c2)C1O (stereo not drawn) [Example 1256],11
12,CCCCC1(CCCC)CS(=O)(=O)c2cc(Br)c(N(C)C)cc2C(c2ccccc2)C1O (stereo not drawn) [Example 1257],100
13,CCCCC1(CCCC)CS(=O)(=O)c2c(NC(C)(C)C)cccc2C(c2ccc(F)cc2)C1O (stereo not drawn) [Example 1258],120
14,CCCCC1(CC)CS(=O)(=O)c2ccc(N(C)C)cc2C(c2cccc(O)c2)C1O (stereo not drawn) [Example 1260],12
15,CCCCC1(CCCC)CS(=O)(=O)c2ccc(N(C)C)cc2C(c2cccs2)C1O (stereo not drawn) [Example 1262],30
16,CCCCC1(CCCC)CS(=O)(=O)c2ccc(NC(C)C)cc2C(c2ccc(F)cc2)C1O (stereo not drawn) [Example 1264],210
17,CCCCC1(CCCC)CS(=O)(=O)c2c(NC(C)C)cccc2C(c2ccc(F)cc2)C1O (stereo not drawn) [Example 1265],240
18,CCCCC1(CCCC)CS(=O)(=O)c2ccc(N(C)C)cc2C(c2ccc(OCCCCCCCCCC[N+](CC)(CC)CC)cc2)C1O (stereo not drawn) [Example 1268],35
19,CCCCC1(CCCC)CS(=O)(=O)c2ccc(N(C)C)cc2C(c2ccc(OCCCCCCCCCCI)cc2)C1O (stereo not drawn) [Example 1269],26
20,CCCCC1(CCCC)CS(=O)(=O)c2ccc(N(C)C)cc2C(c2ccc(OCCCCBr)c(F)c2)C1O (stereo not drawn) [Example 1270],26
21,CCCCC1(CCCC)CS(=O)(=O)c2ccc(N(C)C)cc2C(c2cccc(OCCOCCOCC[N+](C)(C)CCN(CC)S(=O)(=O)c3ccccc3)c2)C1O (stereo not drawn) [Example 1271],11

row,SMILES,IC50 [nM]
1,CCCCC1(CCCC)CS(=O)(=O)c2ccc(N(C)C)cc2C(c2cccc(OCCOCCOCC[n+]3cccc(CC(=O)O)c3)c2)C1O (stereo not drawn) [Example 1272],47
2,CCCCCCCCC[N+](CCCCCCCCC)(CCCCCCCCC)CCOCCOCCOc1cccc(C2c3cc(N(C)C)ccc3S(=O)(=O)CC(CCCC)(CCCC)C2O)c1 (stereo not drawn) [Example 1273],29
3,CCCCC1(CCCC)CS(=O)(=O)c2ccc(N(C)C)cc2C(c2ccc(OCc3cccc(CCl)n3)c(F)c2)C1O (stereo not drawn) [Example 1274],28
4,CCCCC1(CCCC)CS(=O)(=O)c2ccc(N(C)C)cc2C(c2ccc(OCCOCC[N+]3(C)CC[N+](C)(C)CC3)c(F)c2)C1O (stereo not drawn) [Example 1275],24
5,CCCCC1(CCCC)CS(=O)(=O)c2ccc(N(C)C)cc2C(c2cccc(OCCOCCOCC[N+](CCCCCCC(C)C)(CCCCCCC(C)C)CCCCCCC(C)C)c2)C1O (stereo not drawn) [Example 1276],29
6,CCCCC1(CCCC)CS(=O)(=O)c2ccc(N(C)C)cc2C(c2ccc(OCCOCCN(C)CC(=O)O)c(F)c2)C1O (stereo not drawn) [Example 1277],18
7,CCCCC[N+](CCCCC)(CCCCC)CCOCCOCCOc1cccc(C2c3cc(N(C)C)ccc3S(=O)(=O)CC(CCCC)(CCCC)C2O)c1 (stereo not drawn) [Example 1278],17
8,CCCCCC[N+](CCCCCC)(CCCCCC)CCOCCOCCOc1cccc(C2c3cc(N(C)C)ccc3S(=O)(=O)CC(CCCC)(CCCC)C2O)c1 (stereo not drawn) [Example 1279],28
9,CCCCC1(CCCC)CS(=O)(=O)c2ccc(N(C)C)cc2C(c2ccc(OCCCCCCI)cc2)C1O (stereo not drawn) [Example 1281],55
10,CCCCC1(CC)CS(=O)(=O)c2ccc([N+](C)(C)C)cc2C(c2ccc(OC)c(F)c2)C1O (stereo not drawn) [Example 1282],170
11,CCCCC1(CCCC)CS(=O)(=O)c2ccc(N(C)C)cc2C(c2ccc(CO)cc2)C1O (stereo not drawn) [Example 1283],170
12,CCCCC1(CCCC)CS(=O)(=O)c2c(NCC)cccc2C(c2ccc(F)cc2)C1O (stereo not drawn) [Example 1284],11
13,CCCCC1(CCCC)CS(=O)(=O)c2ccc(N(C)C)cc2C(c2ccc(OCCC[N+](CCCC)(CCCC)CCCC)c(F)c2)C1O (stereo not drawn) [Example 1286],68
14,CCCCC1(CCCC)CS(=O)(=O)c2ccc(N(C)C)cc2C(c2cccc(OCCOCCOCC[N+]3(CCOc4ccc(Br)cc4)CCCC3)c2)C1O (stereo not drawn) [Example 1288],13
15,CCCCCCCC[N+](CCCCCCCC)(CCCCCCCC)CCOCCOCCOc1cccc(C2c3cc(N(C)C)ccc3S(=O)(=O)CC(CCCC)(CCCC)C2O)c1 (stereo not drawn) [Example 1289],26
16,CCCCC1(CCCC)CS(=O)(=O)c2ccc(N(C)C)cc2C(c2ccc(OCCC[n+]3ccccc3CCCO)c(F)c2)C1O (stereo not drawn) [Example 1290],17
17,CCCCC1(CCCC)CS(=O)(=O)c2ccc(N(C)C)cc2C(c2ccc(OCc3cccc[n+]3C)c(F)c2)C1O (stereo not drawn) [Example 1291],13
18,CCCCC1(CCCC)CS(=O)(=O)c2ccc(N(C)C)cc2C(c2cccc(OCCOCCOCC[P+](c3ccccc3)(c3ccccc3)c3ccccc3)c2)C1O (stereo not drawn) [Example 1292],25
19,CCCCC1(CCCC)CS(=O)(=O)c2ccc(N(C)C)cc2C(c2cccc(OCCOCCOCC[N+](CC)(CC)CCC(C)=O)c2)C1O (stereo not drawn) [Example 1293],19
20,CCCCC1(CCCC)CS(=O)(=O)c2ccc(N(C)C)cc2C(c2cccc(OCCOCCOCC[N+]3(c4ccccc4)CCCCC3)c2)C1O (stereo not drawn) [Example 1294],11
21,CCCCC1(CCCC)CS(=O)(=O)c2ccc(N(C)C)cc2C(c2ccc(OCc3cc[n+](CC(=O)OC(C)(C)C)cc3)c(F)c2)C1O (stereo not drawn) [Example 1295],14

row,SMILES,IC50 [nM]
1,CCCCC1(CCCC)CS(=O)(=O)c2ccc(N(C)C)cc2C(c2ccc(OCCOCCOc3cccc(N(CC)CC)c3)c(F)c2)C1O (stereo not drawn) [Example 1296],63
2,CCCCC1(CCCC)CS(=O)(=O)c2ccc(N(C)C)cc2C(c2cccc(OCCOCCOCC[n+]3ccc(C4CCC(C)CC4)cc3)c2)C1O (stereo not drawn) [Example 1297],29
3,CCCCC1(CCCC)CS(=O)(=O)c2ccc(N(C)C)cc2C(c2cccc(OCCOCCOCC[N+](C)(C)CCC(C)CCN(C)C)c2)C1O (stereo not drawn) [Example 1298],18
4,CCCCC1(CCCC)CS(=O)(=O)c2ccc([N+](C)(C)C)cc2C(c2cccc(OC)c2)C1O (stereo not drawn) [Example 1301],150
5,CCCCC1(CCCC)CS(=O)(=O)c2c(O)cccc2C(c2cccc(O)c2)C1O (stereo not drawn) [Example 1302],1400
6,CCCCC1(CCCC)CS(=O)(=O)c2ccc(N(C)C)cc2C(c2ccc(OCC[N+](C)(C)C)cc2)C1O (stereo not drawn) [Example 1303],260
7,CCCCC1(CCCC)CS(=O)(=O)c2ccc(NC(C)(C)C)cc2C(c2cccc(OC)c2)C1O (stereo not drawn) [Example 1304],250
8,CCCCC1(CCCC)CS(=O)(=O)c2c(NC)cccc2C(c2ccc(F)cc2)C1O (stereo not drawn) [Example 1305],250
9,CCCCC1(CCCC)CS(=O)(=O)c2ccc(N(C)C)cc2C(c2ccc(OC(=O)C(OC)(c3ccccc3)C(F)(F)F)cc2)C1O (stereo not drawn) [Example 1306],1200
10,CCCCC1(CC)CS(=O)(=O)c2ccc(N(C)C)cc2C(c2ccc(OS(=O)(=O)CC34CCC(CC3=O)C4(C)C)c(F)c2)C1O (stereo not drawn) [Example 1308],40
11,CCCCC1(CCCC)CS(=O)(=O)c2c(F)cccc2C(c2ccc(OC)cc2)C1O (stereo not drawn) [Example 1309],240
12,CCCCC1(CC)CS(=O)(=O)c2ccc(N)cc2C(c2ccccc2)C1O (stereo not drawn) [Example 1310],1160
13,CCCCCCOc1ccc2c(c1)S(=O)(=O)CC(CC)(CCCC)C(O)C2c1ccccc1 (stereo not drawn) [Example 1312],5000
14,CCCCC1(CC)CS(=O)(=O)c2cc(OCC)ccc2C(c2ccccc2)C1O (stereo not drawn) [Example 1313],6100
15,CCCCCCOc1ccc2c(c1)C(c1ccccc1)C(O)C(CC)(CCCC)CS2(=O)=O (stereo not drawn) [Example 1315],1670
16,CCCCC1(CC)CS(=O)(=O)c2cc(O)ccc2C(c2ccccc2)C1O (stereo not drawn) [Example 1316],3900
17,CCCCC1(CCCC)CS(=O)(=O)c2ccc(N(C)C)cc2C(c2ccc(OC)c(F)c2)C1O (stereo not drawn) [Example 1347],3.6
18,CCCCC1(CCCC)CS(=O)(=O)c2ccc(N(C)C)cc2C(c2ccc(OCCC[N+](CCCC)(CCCC)CCCC)cc2)C1O (stereo not drawn) [Example 1352],100
19,CCCCC1(CCCC)CS(=O)(=O)c2ccc(N(C)C)cc2C(c2ccc(OCCOCCOCC[N+]3(C)CC[N+](C)(C)CC3)c(F)c2)C1O (stereo not drawn) [Example 1354],6
